Measured values from the NIST ThermoML archive (doi:10.1016/j.jct.2008.12.010).
Numbers after ± are expanded uncertainties.

Assay: xn = mol fraction of the nth substance listed
Conditions: for speed of sound / mass density: Liquid; for speed of sound: Linear variable-path acoustic interferometer; for mass density: Vibrating tube method; for surface tension liquid-gas: Drop volume

Cc1ccc(C)cc1 [1,4-dimethylbenzene] + CCCCCCCCCC
Conditions	mass density [kg/m3]	speed of sound [m/s]	surface tension liquid-gas [mN/m]
288.15 K, x1 = 0.1092	742.78 ± 0.24	1276.2 ± 1.9	–
288.15 K, x1 = 0.1984	750.98 ± 0.24	1278.7 ± 1.9	–
288.15 K, x1 = 0.3105	762.21 ± 0.24	1282.7 ± 1.9	–
288.15 K, x1 = 0.3427	765.62 ± 0.24	1284.1 ± 1.9	–
288.15 K, x1 = 0.4919	782.82 ± 0.24	1292.3 ± 1.9	–
288.15 K, x1 = 0.5438	789.38 ± 0.24	1295.8 ± 1.9	–
288.15 K, x1 = 0.5995	796.78 ± 0.24	1300.1 ± 1.9	–
288.15 K, x1 = 0.7293	815.71 ± 0.24	1312.2 ± 2	–
288.15 K, x1 = 0.7829	824.32 ± 0.24	1318.2 ± 2	–
288.15 K, x1 = 0.8993	844.93 ± 0.24	1333.7 ± 2	–
288.15 K, x1 = 0.9499	854.78 ± 0.24	1341.9 ± 2	–
293.15 K, x1 = 0.1092	739.03 ± 0.24	1256.7 ± 1.9	–
293.15 K, x1 = 0.1984	747.15 ± 0.24	1259 ± 1.9	–
293.15 K, x1 = 0.3427	761.75 ± 0.24	1264.3 ± 1.9	–
293.15 K, x1 = 0.4919	778.88 ± 0.24	1272.3 ± 1.9	–
293.15 K, x1 = 0.5438	785.41 ± 0.24	1275.7 ± 1.9	–
293.15 K, x1 = 0.5995	792.78 ± 0.24	1279.9 ± 1.9	–
293.15 K, x1 = 0.7293	811.62 ± 0.24	1291.8 ± 1.9	–
293.15 K, x1 = 0.7829	820.21 ± 0.24	1297.8 ± 1.9	–
293.15 K, x1 = 0.8993	840.73 ± 0.24	1312.9 ± 2	–
293.15 K, x1 = 0.9499	850.54 ± 0.24	1320.9 ± 2	–
293.18 K, x1 = 0.3105	758.36 ± 0.24	1262.9 ± 1.9	–
298.15 K, x1 = 0.09726	–	–	23.21 ± 0.26
298.15 K, x1 = 0.1092	735.23 ± 0.24	1236.5 ± 1.9	–
298.15 K, x1 = 0.1984	743.31 ± 0.24	1238.7 ± 1.9	–
298.15 K, x1 = 0.2	–	–	23.4 ± 0.27
298.15 K, x1 = 0.2959	–	–	23.61 ± 0.27
298.15 K, x1 = 0.3105	754.46 ± 0.24	1242.7 ± 1.9	–
298.15 K, x1 = 0.3427	757.83 ± 0.24	1244 ± 1.9	–
298.15 K, x1 = 0.4047	–	–	23.89 ± 0.27
298.15 K, x1 = 0.4919	774.88 ± 0.24	1251.8 ± 1.9	–
298.15 K, x1 = 0.4998	–	–	24.23 ± 0.27
298.15 K, x1 = 0.5374	–	–	24.37 ± 0.27
298.15 K, x1 = 0.5438	781.38 ± 0.24	1255.3 ± 1.9	–
298.15 K, x1 = 0.5995	788.72 ± 0.24	1259.3 ± 1.9	–
298.15 K, x1 = 0.6024	–	–	24.66 ± 0.27
298.15 K, x1 = 0.6962	–	–	25.15 ± 0.27
298.15 K, x1 = 0.7293	807.48 ± 0.24	1271.1 ± 1.9	–
298.15 K, x1 = 0.7829	816.03 ± 0.24	1276.9 ± 1.9	–
298.15 K, x1 = 0.8025	–	–	25.73 ± 0.27
298.15 K, x1 = 0.8914	–	–	26.33 ± 0.28
298.15 K, x1 = 0.8993	836.47 ± 0.24	1291.9 ± 1.9	–
298.15 K, x1 = 0.9499	846.25 ± 0.24	1299.8 ± 1.9	–
298.15 K, x1 = 0.9503	–	–	26.79 ± 0.28
303.15 K, x1 = 0.1092	731.39 ± 0.24	1216.6 ± 1.9	–
303.15 K, x1 = 0.1984	739.42 ± 0.24	1218.8 ± 1.9	–
303.15 K, x1 = 0.3105	750.53 ± 0.24	1222.5 ± 1.9	–
303.15 K, x1 = 0.3427	753.87 ± 0.24	1223.9 ± 1.9	–
303.15 K, x1 = 0.4919	770.85 ± 0.24	1231.6 ± 1.9	–
303.15 K, x1 = 0.5438	777.33 ± 0.24	1235 ± 1.9	–
303.15 K, x1 = 0.5995	784.63 ± 0.24	1239 ± 1.9	–
303.15 K, x1 = 0.7293	803.32 ± 0.24	1250.6 ± 1.9	–
303.15 K, x1 = 0.7829	811.82 ± 0.24	1256.3 ± 1.9	–
303.15 K, x1 = 0.8993	832.18 ± 0.24	1271.3 ± 1.9	–
303.15 K, x1 = 0.9499	841.92 ± 0.24	1278.9 ± 1.9	–

CCOC(=O)OCC [diethyl carbonate] + Cc1ccc(C)cc1
Conditions	mass density [kg/m3]	speed of sound [m/s]	surface tension liquid-gas [mN/m]
288.15 K, x1 = 0.0509	871.12 ± 0.23	1343.5 ± 2	–
288.15 K, x1 = 0.0985	876.57 ± 0.23	1336.8 ± 1.9	–
288.15 K, x1 = 0.1975	887.94 ± 0.21	1322.8 ± 1.9	–
288.15 K, x1 = 0.2974	899.4 ± 0.2	1308.7 ± 1.9	–
288.15 K, x1 = 0.3983	910.97 ± 0.19	1294.6 ± 1.9	–
288.15 K, x1 = 0.5023	922.91 ± 0.18	1280.2 ± 1.8	–
288.15 K, x1 = 0.5485	928.22 ± 0.17	1274 ± 1.8	–
288.15 K, x1 = 0.5968	933.78 ± 0.17	1267.5 ± 1.8	–
288.15 K, x1 = 0.6464	939.5 ± 0.17	1261 ± 1.8	–
288.15 K, x1 = 0.6992	945.6 ± 0.16	1254.2 ± 1.8	–
288.15 K, x1 = 0.7976	956.98 ± 0.15	1241.8 ± 1.7	–
288.15 K, x1 = 0.8515	963.21 ± 0.15	1235.1 ± 1.7	–
288.15 K, x1 = 0.9	968.83 ± 0.14	1229.4 ± 1.7	–
288.15 K, x1 = 0.9507	974.69 ± 0.14	1223.5 ± 1.7	–
293.15 K, x1 = 0.04951	866.58 ± 0.23	1322.7 ± 1.9	–
293.15 K, x1 = 0.09841	872.13 ± 0.23	1315.9 ± 1.9	–
293.15 K, x1 = 0.2007	883.74 ± 0.21	1301.6 ± 1.9	–
293.15 K, x1 = 0.3004	895.04 ± 0.2	1287.6 ± 1.9	–
293.15 K, x1 = 0.4017	906.52 ± 0.19	1273.5 ± 1.8	–
293.15 K, x1 = 0.4997	917.64 ± 0.18	1260 ± 1.8	–
293.15 K, x1 = 0.5976	928.79 ± 0.17	1246.8 ± 1.8	–
293.15 K, x1 = 0.65	934.76 ± 0.17	1239.9 ± 1.8	–
293.15 K, x1 = 0.6999	940.46 ± 0.16	1233.4 ± 1.8	–
293.15 K, x1 = 0.7969	951.55 ± 0.15	1221.2 ± 1.7	–
293.15 K, x1 = 0.8522	957.87 ± 0.15	1214.5 ± 1.7	–
293.15 K, x1 = 0.9516	969.28 ± 0.14	1203.1 ± 1.7	–
298.15 K, x1 = 0.05081	862.33 ± 0.23	1301.4 ± 1.9	–
298.15 K, x1 = 0.05201	–	–	27.27 ± 0.28
298.15 K, x1 = 0.09983	–	–	27.12 ± 0.28
298.15 K, x1 = 0.1564	874.2 ± 0.22	1286.7 ± 1.9	–
298.15 K, x1 = 0.2023	–	–	26.85 ± 0.27
298.15 K, x1 = 0.2581	885.6 ± 0.21	1272.5 ± 1.9	–
298.15 K, x1 = 0.3052	890.87 ± 0.2	1265.9 ± 1.9	–
298.15 K, x1 = 0.3063	–	–	26.61 ± 0.27
298.15 K, x1 = 0.4021	901.73 ± 0.19	1252.4 ± 1.8	–
298.15 K, x1 = 0.4043	–	–	26.39 ± 0.26
298.15 K, x1 = 0.4446	–	–	26.31 ± 0.26
298.15 K, x1 = 0.4941	912.05 ± 0.18	1239.7 ± 1.8	–
298.15 K, x1 = 0.5014	912.87 ± 0.18	1238.7 ± 1.8	–
298.15 K, x1 = 0.5042	–	–	26.19 ± 0.26
298.15 K, x1 = 0.5936	–	–	26.01 ± 0.26
298.15 K, x1 = 0.5966	923.58 ± 0.17	1226 ± 1.8	–
298.15 K, x1 = 0.6896	934.06 ± 0.16	1213.8 ± 1.8	–
298.15 K, x1 = 0.7041	–	–	25.8 ± 0.26
298.15 K, x1 = 0.7459	940.42 ± 0.16	1206.7 ± 1.7	–
298.15 K, x1 = 0.7994	–	–	25.65 ± 0.25
298.15 K, x1 = 0.8968	–	–	25.52 ± 0.25
298.15 K, x1 = 0.8987	957.7 ± 0.15	1188.4 ± 1.7	–
298.15 K, x1 = 0.9492	963.41 ± 0.14	1182.6 ± 1.7	–
303.15 K, x1 = 0.05001	857.79 ± 0.23	1280.6 ± 1.9	–
303.15 K, x1 = 0.09883	863.2 ± 0.23	1274 ± 1.9	–
303.15 K, x1 = 0.1971	874.11 ± 0.22	1260.3 ± 1.9	–
303.15 K, x1 = 0.3068	886.26 ± 0.2	1245 ± 1.8	–
303.15 K, x1 = 0.3908	895.57 ± 0.19	1233.2 ± 1.8	–
303.15 K, x1 = 0.499	907.57 ± 0.18	1218.4 ± 1.8	–
303.15 K, x1 = 0.5482	913.03 ± 0.18	1211.7 ± 1.8	–
303.15 K, x1 = 0.6011	918.91 ± 0.17	1204.7 ± 1.8	–
303.15 K, x1 = 0.6472	924.05 ± 0.17	1198.6 ± 1.8	–
303.15 K, x1 = 0.6979	929.7 ± 0.16	1192.1 ± 1.7	–
303.15 K, x1 = 0.7962	940.68 ± 0.16	1179.8 ± 1.7	–
303.15 K, x1 = 0.9007	952.41 ± 0.15	1167.4 ± 1.7	–
303.15 K, x1 = 0.951	958.07 ± 0.14	1161.6 ± 1.7	–
308.15 K, x1 = 0.09736	858.51 ± 0.23	1253.3 ± 1.9	–
308.15 K, x1 = 0.2045	870.25 ± 0.21	1238.5 ± 1.9	–
308.15 K, x1 = 0.2963	880.29 ± 0.2	1225.7 ± 1.8	–
308.15 K, x1 = 0.4046	892.15 ± 0.19	1210.4 ± 1.8	–
308.15 K, x1 = 0.4955	902.1 ± 0.18	1197.8 ± 1.8	–
308.15 K, x1 = 0.5478	907.85 ± 0.18	1190.9 ± 1.8	–
308.15 K, x1 = 0.6058	914.21 ± 0.17	1183.1 ± 1.8	–
308.15 K, x1 = 0.657	919.84 ± 0.17	1176.5 ± 1.7	–
308.15 K, x1 = 0.6936	923.87 ± 0.17	1171.9 ± 1.7	–
308.15 K, x1 = 0.7468	929.74 ± 0.16	1165.2 ± 1.7	–
308.15 K, x1 = 0.8022	935.86 ± 0.16	1158.4 ± 1.7	–
308.15 K, x1 = 0.9035	947.12 ± 0.15	1146.5 ± 1.7	–
